Legend:
[1] = tested on: C57BL/6 and p47phox-/- mice infected intranasally with A. fumigatus conidia; test: Lung inflammation model: C57BL/6 and p47phox-/- mice infected intranasally with A. fumigatus; assay type: in vivo
Method: In vivo models mimicking human pathology such as lung and gut inflammation were prepared. A model of lung inflammation was tested using C57BL/6 and p47phox-/- mice. The mice were infected with A. fumigatus intranasally and treated them with Tβ4 for 7 consecutive days starting a week after the infection. LC3-II (FIG. 1F) and DAPK1 (FIG. 1G) expression were both defective in p47phox-/- mice, but restored by Tβ4 and ablated (LC3-II) upon siTβ4 (FIGS. 10A and 10B). In addition, gut inflammation was tested using the same mouse model. Acute colitis in p47phox-/- mice was initiated by administering […] in drinking water for 7 days followed by 7 days of DSS-free autoclaved water. Subsequently, Tβ4 was therapeutically administered daily for 7 days, after DSS treatment, at the time at which mice started to lose weight. Consistent with previous findings (de Luca et al., 2014), LC3-II (FIG. 1H) and DAPK1 (FIG. 1I) expression were both defective in the colon ofp47phox-/- mice with colitis as opposed to WT mice but restored upon treatment with T134 (FIGS. 1H and 1I). DAPK1 expression in colon lysates of C57BL/6 and p47^phox-/- mice subjected to DSS-induced colitis for a week and treated intraperitoneally with 5 mg/kg Tβ4 for 7 consecutive days after DSS treatment, n=6-10 mice per group. Data are presented as mean ±SD and are representative of two experiments. Mice were categorized as Naive (uninfected or untreated mice) or None (infected mice). For immunoblotting, normalization was performed on mouse β-actin or Gapdh and corresponding pixel density or ratio is depicted. For immunofluorescence, nuclei were counterstained with DAPI. Photographs were taken with a high-resolution microscope (Olympus BX51), 40× and 100× magnification. LC3 mean fluorescence intensity (MFI) was measured with the ImageJ software. In FIGS. 1F-1H, n=6-10 mice per group. Data are presented as mean ±SD and are representative of two experiments. Naïve, uninfected or untreated mice. None, infected mice.
Viable conidia from the A. fumigatus Af293 strain were obtained as described (De Luca et al., 2012). Mice were anesthetized in a plastic cage by inhalation of 3% isoflurane (Forane Abbot) in oxygen before intranasal instillation of 2×10^7 resting conidia/20 μl saline. For survival curves, p47^phox-/- mice were challenged with […] conidia/20 μl saline. Tβ4 was administered intraperitoneally (i.p.) at the dose of 5 mg/kg at an effective dose as described (Badamchian et al., Thymosin beta(4) reduces lethality and down-regulates inflammatory mediators in endotoxin-induced septic shock. Int Immunopharmacol, 2003 3(8): p. 1225-33), every day in concomitance with (days 0→7) or after (days 7→14) infection. DMOG (Merck Millipore) was administered i.p. at the dose of 8 mg/mouse concomitantly to the infection. For Hif1a silencing, each mouse received intranasal administration of 10 mg/kg unmodified siRNA [Duplex name mm.Ri.Hif1a.13.1 (IDT); 5′-[…]-3′; 3′-[…] -5′] and Tmsb4x silencing [Duplex name mm.Ri.Tmsb4x.13.1; 5′-[…]-3′; 3′-[…] -5′], or equivalent dose of nonspecific control siRNA duplex in a volume of 20 μl of duplex buffer (IDT). Intranasal siRNA was given once the day before infection and 1, 3 and 5 days after infection (Iannitti et al., 2013 Hypoxia promotes danger-mediated inflammation via receptor for advanced glycation end products in cystic fibrosis. Am J Respir Crit Care Med 188:1338-1350). It is known that lung-specific siRNA delivery can be achieved by intranasal administration without the use of viral vectors or transfection agents in vivo (Iannitti et al., 2013 Th17/Treg imbalance in murine cystic fibrosis is linked to indoleamine 2,3-dioxygenase deficiency but corrected by kynurenines. Am J Respir Crit Care Med 187:609-620). Mice were sacrificed 7 or 14 days post infection. Fungal burden was determined by qPCR and expressed as conidial equivalents (CE). Lung tissue was aseptically removed and homogenized in 3 ml of sterile saline. […]

[2] = tested on: alveolar macrophages from lung of C57BL/6 and p47phox-/- mice; test: ROS production by DHR in alveolar macrophages, with or without MitoTEMPO; assay type: cell-based; conditions: 100 nM 1 hour, conidia 2 hours, absence or presence of MitoTEMPO (FIGS. 8C, 8D)
Method: Experiments were also conducted to determine whether Tβ4 increases mitochondrial redox balance. p47phox-/- mice were infected intranasally with A. fumigatus and treated with 5 mg/kg Tβ4. HIF-1α-dependent glycolytic genes were not increased by Tβ4 treatment (FIG. 8A). In contrast, Irg1 expression was increased in mice treated with Tβ4 (FIG. 8B). In addition, ROS production by DHR was measured in C57BL/6 and p47phox-/- mice pre-exposed to 100 nM T134 for 1 hour and pulsed with A. fumigatus conidia for additional 2 hours, in the absence (FIG. 8C) or presence (FIG. 8D) of MitoTEMPO. We could detect the production of mitochondrial ROS induced by Tβ4, thus supporting the hypothesis that mtROS might mediate the regulation of HIF-1α levels by Tβ4. 10 ng/ml PMA was used as a positive control. Fluorescence was measured by a Tecan Infinite 200 fluorimeter. Data are presented as mean ±SD and are representative of two independent experiments. […] RFU, relative fluorescence units.
Alveolar macrophages from lung of C57BL/6 and p47phox-/- uninfected mice were assessed for intracellular ROS production by dihydrorhodamine 123 (DHR) evaluation. […] The DHR was measured by the multifunctional microplate reader Tecan Infinite 200 (Tecan) at different time points. The results expressed as relative fluorescence units (RFU) are the means ±SD of at least two experiments in duplicate.

[3] = following Tβ4 treatment, thoracic lymph nodes, lung homogenates
[4] = lung homogenates, ELISA (FIG. 4E)

## Thymosin β4 [Tβ4]
[1]; CGD (p47phox-/-) mice, Tβ4 7 days concomitantly to infection (FIG. 2E, 2F)
  HIF-1α protein in lung: restored
[1]; both types of mice (C57BL/6 and p47phox-/-), 5 mg/kg i.p. (FIG. 4A)
  fungal growth in the lung: reduced
[1]; [3]
  pathogenic Th2/Th17/Th9 cell responses: down-regulated
  protective Th1/Treg cell responses: promoted
[1]; infected mice (FIG. 4D)
  NLRP3 expression in lung: down-regulated
[1]; [4]
  IFNy production: reduced
  IL-1β production: reduced
  IL-17A production: reduced
  TNF-α production: reduced
[1]; lungs of Aspergillus-infected mice (FIG. 3C)
  expression of genes of angiogenic signaling (Angpt2, Tie2, Vegfa), remodeling (Fgf2), hormonal regulation (Epo), cell migration (Cxcr4): upregulated
[1]; p47phox-/- mice after Tβ4 administration (FIG. 4C)
  gross lung pathology and histological examination: No signs of inflammatory lung injury and granuloma formation
[1]; p47phox-/- mice, 5 mg/kg Tβ4 (FIG. 8A)
  HIF-1α-dependent glycolytic genes: not increased
[1]; p47phox-/- mice, 5 mg/kg Tβ4 (FIG. 8B)
  Irg1 expression: increased
[1]; p47phox-/- mice, 5 mg/kg i.p. 7 consecutive days starting a week after infection (FIG. 1F)
  LC3-II expression in lung: restored
[1]; p47phox-/- mice, 5 mg/kg i.p. 7 consecutive days starting a week after infection (FIG. 1G)
  DAPK1 expression in lung: restored
[2]
  production of mitochondrial ROS (DHR): induced

Source: patent publication US20220241378A1, “COMPOSITIONS AND METHODS FOR TREATMENT OF CHRONIC GRANULOMATOUS DISEASE” (priority 2019, published 2022)
